Assay results from paper PMC7449170, “ATI-2173, a Novel Liver-Targeted Non-Chain-Terminating Nucleotide for Hepatitis B Virus Cure Regimens” (Antimicrobial Agents and Chemotherapy, 2020).

How the values were obtained:
[1] = tested on: HBV genotypes A, B, C, D, E, F, G, and H; assay: microbe, parasite or virus in culture; type: cell-based; details: Hepatitis B virus, HepG2, read-out: EC50 across HBV genotypes A to H
[2] = tested on: HBV genotype F (HE974369); assay: microbe, parasite or virus in culture; type: cell-based; details: Hepatitis B virus, HepG2
[3] = tested on: HBV genotype G (AB064315); assay: microbe, parasite or virus in culture; type: cell-based; details: Hepatitis B virus, HepG2
[4] = tested on: HBV genotype H (AB179747); assay: microbe, parasite or virus in culture; type: cell-based; details: Hepatitis B virus, HepG2
HBV wild type (U95551) = assay: Cross-resistance in transfected HepG2 cells, wild type; type: cell-based, Hepatitis B virus; details: Hepatitis B virus
hepatitis C virus = assay: Antiviral panel: hepatitis C virus; type: cell-based; details: up to 100 μM, data not shown
[5] = tested on: respiratory syncytial virus; assay: Antiviral panel: respiratory syncytial virus; type: cell-based; details: up to 100 μM, data not shown
herpes simplex virus 1 = assay: Antiviral panel: herpes simplex virus 1; type: cell-based; details: up to 100 μM, data not shown
HBV = assay: Serum shift of anti-HBV EC50; type: cell-based, Hepatitis B virus; details: data not shown
[6] = Pharmacokinetics and tissue concentration in rats after single oral dose; type: in vivo, Sprague-Dawley rats; details: single oral 50 mg/kg ATI-2173 vs 25 mg/kg clevudine
Procedure: Female Sprague Dawley (SD) rats (from Envigo, NJ), 225 to 249 g, were used in the studies. Clevudine and ATI-2173 were administered by oral gavage (p.o.) in carboxyl methyl cellulose/PEG 400/Tween 20 (0.5%/20%/5%). The oral doses were administered at 25 mg/kg and 50 mg/kg, respectively. Blood samples were collected at 1, 2, 4, 6, 8, and 24 h into lithium-heparin microtainer tubes (BD). Plasma samples were prepared within 30 min after collection by centrifugation at 2,000× rcf for 10 min at 4°C and stored at –80°C before processing for analysis by liquid chromatography-tandem mass spectrometry (LC-MS/MS). Rat organs (skeletal muscle, liver, and heart) were collected from all rats immediately following blood collection at all time points. The tissues were immediately snap-frozen in liquid nitrogen and stored at –80°C before processing for analysis by LC-MS/MS. […]
Samples were maintained at 4°C in a Leap Pal Autosampler (CTC Analytics AG, Zwingen, Switzerland). Plasma concentrations of ATI-2173 and clevudine were determined using qualified methods with an assay range of 10 to 1,000 ng/ml. […] QCs were prepared at 30, 500, and 900 ng/ml and were measured within ± 30% of actual values. […]
Tissue levels were measured according to qualified LC-MS/MS methods with an assay range of 18 to 18,000 ng/g of tissue. […]

[7] = Food effect on plasma exposure in rats; type: in vivo; details: single oral 50 mg/kg, data not shown
HBV genotype D = assay: microbe, parasite or virus in culture; details: Hepatitis B virus, Hepatocyte, 192 h, read-out: EC50, HBV DNA
Procedure: HBV genotype D was concentrated from HepDE19 culture supernatants (2.53 × 10^10 genome equivalents [GE]/ml) and provided by WuXi. On day 0, hepatocytes were seeded into a 48-well plate at a density of 1.32 × 10^5 cells/well. On day 1, hepatocytes were infected with 200 HBV GE/cell and were cultured at 37°C and 5% CO2. […] On day 8, the culture supernatants were collected and HBV DNA was harvested with QIAamp 96 DNA blood kit (Qiagen, 51162).

HK-2 human kidney cells = assay: Cytotoxicity in HK-2 kidney cells (CellTiter-Glo); details: up to 100 μM, 72 h
Procedure: (§1) HK-2 human kidney cells were obtained from ATCC (Manassas, VA) and cultured in Gibco Keratinocyte serum-free medium (Thermo Fisher Scientific, Waltham, MA) supplemented with 10% FBS (Peak Serum, Wellington, CO). Human skeletal muscle cells were obtained from Lonza (Walkersville, MD) and cultured in SkGM-2 skeletal muscle cell growth medium-2 (Lonza). Both HK-2 and skeletal muscle cells were cultured humidified at 37°C and 5% CO2. Cryopreserved human primary hepatocytes and medium were received from Lonza. Cryopreserved iCell cardiomyocytes and cardiomyocyte medium were purchased from Stem Cell Technologies (Vancouver, BC, Canada). Cryopreserved human bone marrow mononuclear cells were purchased from Lonza with HemaTox Myeloid medium purchased from [sequence] […] All cryopreserved cells (human primary hepatocytes, iCell cardiomyocytes, and human bone marrow mononuclear cells) were stored in vapor phase liquid nitrogen until the day of plating. […] Serial dilutions of compounds in DMSO were as follows: 100, 10, 1, 0.1, 0.01, 0.001, 0.0001, and 0.00001 μM (final concentration of DMSO in medium was 0.5%). […]
(§2) Following incubation, cells were dosed and incubated for 72 h at 37°C and 5% CO2. Following incubation, the endpoint cell viability CellTiter-Glo 2.0 assay (Promega, San Luis Obispo, CA) was performed and luminescence data collected on a Synergy 4 plate reader (Biotek, Winooski, VT). […]

[8] = Cell viability (CC50) in primary human hepatocytes
[9] = tested on: cryopreserved primary human hepatocytes; assay: Cytotoxicity in primary human hepatocytes (CellTiter-Glo); details: up to 100 μM, 72 h
Procedure: as §1, §2

With Cc1cn(C2OC(COP(=O)(NC(C)C(=O)OC(C)C)Oc3ccccc3)C(O)C2F)c(=O)[nH]c1=O (stereo not drawn) [ATI-2173] the EC50 [1] was 212 to 718 nM, the EC50 [2] was 328 nM and the EC50 [3] was 230 nM. The EC50 [4] was 718 nM, the EC50 (HBV wild type (U95551)) was 601 nM and the Antiviral efficacy (hepatitis C virus) was “no detectable efficacy”. For the same compound, the Antiviral efficacy [5] was “no detectable efficacy”, the Antiviral efficacy (herpes simplex virus 1) was “no detectable efficacy” and the “Serum shift in EC50” value (HBV) was “no clear serum shift”. For the same compound, the “Liver exposure to the 5′-triphosphate versus equimolar clevudine” value [6] was “nearly identical liver exposure”, the “Difference in plasma exposure (Cmax or AUC0-last) to ATI-2173 or clevudine, fed versus fasted” value [7] was “no discernible differences” and the EC50 (HBV genotype D) was 1.31 nM. For the same compound, the Cytotoxicity (HK-2 human kidney cells) was “did not demonstrate any cytotoxicity”, the CC50 [8] was greater than 20 nM and the Cytotoxicity [9] was “did not demonstrate any cytotoxicity”.
